Measured values from article PMC10425210 (The Journal of Clinical Investigation, 2023).
Like-named read-outs stand apart in the source and are kept apart here.

Assay: Plasma pharmacokinetics after a single subcutaneous administration of LEN
Format: in vivo, rhesus macaques
Conditions: male, rhesus monkey, plasma; for concentration at 9 week: week 9 post dose; for concentration at 10 week: week 10 post dose; for concentration at 11 week: week 11 post dose; for concentration at 12 week: week 12 post dose; for concentration at 13 week: week 13 post dose; for concentration at 14 week: week 14 post dose; for concentration at 15 week: week 15 post dose; for concentration at 16 week: week 16 post dose; for concentration at 17 weeks post challenge: week 17 post challenge; for concentration at 18 weeks post challenge: week 18 post challenge; for concentration at 0 weeks post challenge: week 0 post challenge; for concentration at 1 weeks post challenge: week 1 post challenge; for concentration at 2 weeks post challenge: week 2 post challenge; for concentration at 3 weeks post challenge: week 3 post challenge; for concentration at 4 weeks post challenge: week 4 post challenge; for concentration at 5 weeks post challenge: week 5 post challenge; for concentration at 6 weeks post challenge: week 6 post challenge; for concentration at 7 weeks post challenge: week 7 post challenge; for concentration at 0.14 week / concentration at 0.43 week / concentration at 1 week / concentration at 2 week / concentration at 17 week / concentration at 18 week / concentration at 19 week / concentration at 20 week / concentration at 21 week / concentration at 22 week / concentration at 23 week / concentration at 24 week / concentration at 25 week: Indian-origin, outbred; for concentration at 0.14 week: week 0.14 post dose; for concentration at 0.43 week: week 0.43 post dose; for concentration at 1 week: week 1 post dose; for concentration at 2 week: week 2 post dose; for concentration at 17 week: week 17 post dose; for concentration at 18 week: week 18 post dose; for concentration at 19 week: week 19 post dose; for concentration at 20 week: week 20 post dose; for concentration at 21 week: week 21 post dose; for concentration at 22 week: week 22 post dose; for concentration at 23 week: week 23 post dose; for concentration at 24 week: week 24 post dose; for concentration at 25 week: week 25 post dose; for half-life: sc; for concentration at 3 weeks: week 3 post dose; for concentration at 4 weeks: week 4 post dose; for concentration at 5 weeks: week 5 post dose; for concentration at 6 weeks: week 6 post dose
Procedure: All animals were housed at Bioqual Inc. For the in vivo SHIV stock titration study, 8 untreated outbred Indian-origin male rhesus macaques aged 3–5 years were challenged intrarectally per round for a total of 5 challenge rounds using increasing virus doses ranging from 0.625 to 100 TCID50, with the 100 TCID50 round performed twice for increased resolution (Supplemental Table 2). Plasma viral load was measured to confirm the infection status. […] Injection sites were monitored daily by veterinary staff for 2 weeks and then weekly through the end of study. On week 7, 11 animals were challenged by the intrarectal route with 1 mL RPMI containing 100 TCID50 SHIV-SF162P3. Whole blood was collected and processed into plasma and PBMCs as necessary for the assessment of routine hematology and clinical chemistry, viral load analysis, serology, and the bioanalysis of drug levels. Animals were considered protected if they remained SHIV negative by a plasma PCR assay and seronegative by enzyme immunoassay through week 10 after challenge.
Rhesus plasma samples were stored frozen at –80°C and thawed, and a 50 μL aliquot of each was treated with 200 μL acetonitrile containing an internal standard. After precipitation of the protein component, a 100 μL aliquot of the supernatant was transferred to a clean 96-well plate and mixed with 200 μL water. A 10 μL aliquot of the above solution was then injected into a Q-Exactive high resolution mass spectrometer from Thermo Electron with electrospray ionization in positive mode.

[1] = Indian-origin (outbred), subcutaneous, 50 mg/kg, Plasma LEN (Mean), 50 mg/kg sc
[2] = Indian-origin (outbred), subcutaneous, 50 mg/kg, Plasma LEN, animal CO92, 50 mg/kg
[3] = Indian-origin (outbred), subcutaneous, 50 mg/kg, Plasma LEN, animal V411, 50 mg/kg
[4] = Indian-origin (outbred), subcutaneous, 50 mg/kg, Plasma LEN, animal V430, 50 mg/kg
[5] = Indian-origin (outbred), subcutaneous, 50 mg/kg, Plasma LEN, animal V470, 50 mg/kg
[6] = Indian-origin (outbred), subcutaneous, 75 mg/kg, Plasma LEN (Mean), 75 mg/kg sc
[7] = Indian-origin (outbred), subcutaneous, 75 mg/kg, Plasma LEN, animal CP67, 75 mg/kg
[8] = Indian-origin (outbred), subcutaneous, 75 mg/kg, Plasma LEN, animal V417, 75 mg/kg
[9] = Indian-origin (outbred), subcutaneous, 75 mg/kg, Plasma LEN, animal V426, 75 mg/kg
[10] = Indian-origin (outbred), subcutaneous, 75 mg/kg, Plasma LEN, animal V435, 75 mg/kg
[11] = subcutaneous, 5 mg/kg, Plasma LEN (Mean), 5 mg/kg sc
[12] = subcutaneous, 10 mg/kg, Plasma LEN (Mean), 10 mg/kg sc
[13] = subcutaneous, 20 mg/kg, Plasma LEN (Mean), 20 mg/kg sc
[14] = subcutaneous, 50 mg/kg, Plasma LEN (Mean), 50 mg/kg sc
[15] = subcutaneous, 75 mg/kg, Plasma LEN (Mean), 75 mg/kg sc
[16] = outbred Indian-origin, subcutaneous, 5 mg/kg, Plasma LEN (Mean), 5 mg/kg sc
[17] = outbred Indian-origin, subcutaneous, 10 mg/kg, Plasma LEN (Mean), 10 mg/kg sc
[18] = outbred Indian-origin, subcutaneous, 20 mg/kg, Plasma LEN (Mean), 20 mg/kg sc
[19] = outbred Indian-origin, subcutaneous, 50 mg/kg, Plasma LEN (Mean), 50 mg/kg sc
[20] = outbred Indian-origin, subcutaneous, 75 mg/kg, Plasma LEN (Mean), 75 mg/kg sc
[21] = outbred Indian-origin, 50 mg/kg sc, mean ± SD

CC(C)(C#Cc1ccc(-c2ccc(Cl)c3c(NS(C)(=O)=O)nn(CC(F)(F)F)c23)c([C@H](Cc2cc(F)cc(F)c2)NC(=O)Cn2nc(C(F)(F)F)c3c2C(F)(F)[C@@H]2C[C@H]32)n1)S(C)(=O)=O [LEN, Lenacapavir]
concentration at 9 week [1]: 51.7 nM
concentration at 10 week [1]: 48.7 nM
concentration at 11 week [1]: 45.5 nM
concentration at 12 week [1]: 37.9 nM
concentration at 13 week [1]: 37.9 nM
concentration at 14 week [1]: 21 nM
concentration at 15 week [1]: 18.4 nM
concentration at 16 week [1]: 22.2 nM
concentration at 17 weeks post challenge [2]: 13.6 nM
concentration at 18 weeks post challenge [2]: 13.1 nM
concentration at 17 weeks post challenge [3]: 2.22 nM
concentration at 18 weeks post challenge [3]: 2 nM
concentration at 16 weeks post challenge (Indian-origin (outbred), subcutaneous, 50 mg/kg, Plasma LEN, animal V430, 50 mg/kg, week 16 post challenge): 1.24 nM
concentration at 17 weeks post challenge [4]: 1 nM
concentration at 18 weeks post challenge [4]: 1 nM
concentration at 17 weeks post challenge [5]: 8.55 nM
concentration at 18 weeks post challenge [5]: 10.5 nM
concentration at 8 week (Indian-origin (outbred), subcutaneous, 75 mg/kg, Plasma LEN (Mean), 75 mg/kg sc, week 8 post dose): 55 nM
concentration at 9 week [6]: 72.6 nM
concentration at 10 week [6]: 98 nM
concentration at 11 week [6]: 71.3 nM
concentration at 12 week [6]: 53.5 nM
concentration at 13 week [6]: 73.8 nM
concentration at 14 week [6]: 37.9 nM
concentration at 15 week [6]: 24.6 nM
concentration at 16 week [6]: 30.9 nM
concentration at 0 weeks post challenge [7]: 154 nM
concentration at 1 weeks post challenge [7]: 95.4 nM
concentration at 2 weeks post challenge [7]: 136 nM
concentration at 3 weeks post challenge [7]: 144 nM
concentration at 4 weeks post challenge [7]: 88.1 nM
concentration at 5 weeks post challenge [7]: 87.8 nM
concentration at 6 weeks post challenge [7]: 97.6 nM
concentration at 7 weeks post challenge [7]: 46.5 nM
concentration at 0 weeks post challenge [8]: 158 nM
concentration at 1 weeks post challenge [8]: 43.9 nM
concentration at 2 weeks post challenge [8]: 52.5 nM
concentration at 3 weeks post challenge [8]: 88.5 nM
concentration at 4 weeks post challenge [8]: 69 nM
concentration at 5 weeks post challenge [8]: 48.8 nM
concentration at 6 weeks post challenge [8]: 57.3 nM
concentration at 7 weeks post challenge [8]: 43.9 nM
concentration at 0 weeks post challenge [9]: 178 nM
concentration at 1 weeks post challenge [9]: 68 nM
concentration at 2 weeks post challenge [9]: 89.7 nM
concentration at 3 weeks post challenge [9]: 144 nM
concentration at 4 weeks post challenge [9]: 117 nM
concentration at 5 weeks post challenge [9]: 68.2 nM
concentration at 6 weeks post challenge [9]: 132 nM
concentration at 7 weeks post challenge [9]: 57.4 nM
concentration at 0 weeks post challenge [10]: 28.2 nM
concentration at 1 weeks post challenge [10]: 12.5 nM
concentration at 2 weeks post challenge [10]: 12.4 nM
concentration at 3 weeks post challenge [10]: 14.8 nM
concentration at 4 weeks post challenge [10]: 11.2 nM
concentration at 5 weeks post challenge [10]: 9.22 nM
concentration at 6 weeks post challenge [10]: 8.59 nM
concentration at 0.14 week [11]: 9.76 nM
concentration at 0.43 week [11]: 5.72 nM
concentration at 1 week [11]: 2.82 nM
concentration at 2 week [11]: 2.96 nM
concentration at 0.14 week [12]: 19.9 nM
concentration at 0.43 week [12]: 13.4 nM
concentration at 1 week [12]: 6.88 nM
concentration at 2 week [12]: 8.58 nM
concentration at 0.14 week [13]: 41.3 nM
concentration at 0.43 week [13]: 17.8 nM
concentration at 1 week [13]: 9.23 nM
concentration at 2 week [13]: 16.6 nM
concentration at 0.14 week [14]: 196 nM
concentration at 0.43 week [14]: 79 nM
concentration at 1 week [14]: 56.5 nM
concentration at 2 week [14]: 87.1 nM
concentration at 17 week [14]: 22.1 nM
concentration at 18 week [14]: 17 nM
concentration at 19 week [14]: 11.1 nM
concentration at 20 week [14]: 8.52 nM
concentration at 21 week [14]: 6.49 nM
concentration at 22 week [14]: 7.23 nM
concentration at 23 week [14]: 5.76 nM
concentration at 24 week [14]: 6.32 nM
concentration at 25 week [14]: 6.61 nM
concentration at 0.14 week [15]: 498 nM
concentration at 0.43 week [15]: 223 nM
concentration at 1 week [15]: 162 nM
concentration at 2 week [15]: 213 nM
concentration at 17 week [15]: 24.5 nM
concentration at 18 week [15]: 20.9 nM
concentration at 19 week [15]: 16.2 nM
concentration at 20 week [15]: 16.6 nM
concentration at 21 week [15]: 12.3 nM
concentration at 22 week [15]: 9.35 nM
concentration at 23 week [15]: 10.3 nM
concentration at 24 week [15]: 11.8 nM
concentration at 25 week [15]: 11.6 nM
half-life (outbred Indian-origin, 5-75 mg/kg sc, read-out: plasma drug half-life): 14 to 56 days
half-life (outbred Indian-origin, single sc dosing, range over 5-75 mg/kg groups, read-out: half-life): 17 to 53 days
concentration at 3 weeks [16]: 4.23 nM
concentration at 4 weeks [16]: 4.14 nM
concentration at 5 weeks [16]: 6 nM
concentration at 6 weeks [16]: 4.42 nM
concentration at 7 weeks (outbred Indian-origin, subcutaneous, 5 mg/kg, Plasma LEN (Mean), 5 mg/kg sc, week 7 post dose): 5.29 nM
concentration at 3 weeks [17]: 11.3 nM
concentration at 4 weeks [17]: 10.2 nM
concentration at 5 weeks [17]: 12.8 nM
concentration at 6 weeks [17]: 7.32 nM
concentration at 7 weeks (outbred Indian-origin, subcutaneous, 10 mg/kg, Plasma LEN (Mean), 10 mg/kg sc, week 7 post dose): 10.1 nM
concentration at 3 weeks [18]: 21.2 nM
concentration at 4 weeks [18]: 23.9 nM
concentration at 5 weeks [18]: 30.1 nM
concentration at 6 weeks [18]: 26.8 nM
concentration at 7 weeks (outbred Indian-origin, subcutaneous, 20 mg/kg, Plasma LEN (Mean), 20 mg/kg sc, week 7 post dose): 27.4 nM
concentration at 3 weeks [19]: 92.4 nM
concentration at 4 weeks [19]: 85.3 nM
concentration at 5 weeks [19]: 80.6 nM
concentration at 6 weeks [19]: 71.9 nM
concentration at 7 weeks (outbred Indian-origin, subcutaneous, 50 mg/kg, Plasma LEN (Mean), 50 mg/kg sc, week 7 post dose): 103 nM
concentration at 3 weeks [20]: 126 nM
concentration at 4 weeks [20]: 95.8 nM
concentration at 5 weeks [20]: 89.9 nM
concentration at 6 weeks [20]: 65.1 nM
concentration at 7 weeks (outbred Indian-origin, subcutaneous, 75 mg/kg, Plasma LEN (Mean), 75 mg/kg sc, week 7 post dose): 129 nM
concentration at 7 weeks (outbred Indian-origin, subcutaneous, LEN exposures at the time of challenge, 11 challenged animals, week 7 postdose): 18 to 177 nM
AUC(0-t) (outbred Indian-origin, 5 mg/kg sc, mean ± SD): 9.3 ± 1.9 µM·h
AUC(0-inf) [21]: 243 ± 70 µM·h
AUC(0-t) [21]: 179 ± 23 µM·h
Cmax [21]: 200 ± 74 nM
